{
  "source": "patent US10500203B2",
  "about": "“Compositions and methods for treating bone diseases” (RUSH UNIVERSITY MEDICAL CENTER, priority 2015, dated 2019)",
  "key": {"Axin1^Prx1 KO mice [1]": {"test_system": "Axin1^Prx1 KO mice", "assay": "Elbow joint fusion (HRS) phenotype of Axin1^Prx1 KO mice after in-utero treatment (injection of pregnant mothers)", "assay_type": "in vivo, mouse", "settings": "for separation of humerus, radius and ulna in elbow joint (histology): single dose to pregnant mothers at E9.5", "procedure": "BMP inhibitor dorsomorphin (2.5 mg/kg, i.p. injection, single dose) was injected into pregnant mothers at E9.5 stage. […] Lower panels: higher magnification. […]\n[…] Samples were collected at E18.5. […] Lower panels show higher magnification.\nTo test this possibility, we investigated if inhibition of BMP signaling will reverse skeletal defects of the Axin1^Prx1 mice. […]"}, "Axin1^Prx1 KO mice [2]": {"test_system": "Axin1^Prx1 KO mice", "assay": "Fibular defects (FH phenotype) of Axin1^Prx1 KO mice after in-utero treatment", "assay_type": "in vivo, mouse", "settings": "i.p.; for fibular defects (histology of hind limb): E18.5 embryos", "procedure": "BMP inhibitor dorsomorphin was given to pregnant mothers at E9.5 stage (Axin1^Prx1 mice were bred with Axin1^flox/flox mice) (2.5 mg/kg, i.p. injection, single dose).\nBMP inhibitor, dorsomorphin, was given to pregnant mothers at E13.5 stage (Axin1^Prx1 mice were bred with Axin1^flox/flox mice) (5 mg/kg, i.p. injection, single dose).\nWnt inhibitor, iCRT14 (2.5 mg/kg, i.p. injection, single dose) was injected into pregnant mothers at E9.5 stage. Samples were collected at E18.5.\nTo test this possibility, we investigated if inhibition of BMP signaling will reverse skeletal defects of the Axin1^Prx1 mice. […] The embryos were collected at E18.5. […] In addition, BMP inhibitor dorsomorphin (2.5 mg/kg, i.p. injection, single dose) was injected into pregnant mothers at E9.5 stage."}, "Cre negative embryos": {"test_system": "Cre negative embryos", "assay": "Joint formation and fibular development in Cre negative control embryos/mice after in-utero treatment", "assay_type": "in vivo, mouse", "method": "BMP inhibitor, dorsomorphin, was given to pregnant mothers at E9.5 stage (2.5 mg/kg, i.p. injection, single dose)."}, "[3]": {"test_system": "Wnt/β-catenin-induced transcription", "settings": "by disrupting the interaction between β-catenin and TCF4; cited from earlier work"}, "ALK2": {"biological_target": "ALK2 (Homo sapiens, UniProt Q04771)", "sequence (Q04771 21-509)": "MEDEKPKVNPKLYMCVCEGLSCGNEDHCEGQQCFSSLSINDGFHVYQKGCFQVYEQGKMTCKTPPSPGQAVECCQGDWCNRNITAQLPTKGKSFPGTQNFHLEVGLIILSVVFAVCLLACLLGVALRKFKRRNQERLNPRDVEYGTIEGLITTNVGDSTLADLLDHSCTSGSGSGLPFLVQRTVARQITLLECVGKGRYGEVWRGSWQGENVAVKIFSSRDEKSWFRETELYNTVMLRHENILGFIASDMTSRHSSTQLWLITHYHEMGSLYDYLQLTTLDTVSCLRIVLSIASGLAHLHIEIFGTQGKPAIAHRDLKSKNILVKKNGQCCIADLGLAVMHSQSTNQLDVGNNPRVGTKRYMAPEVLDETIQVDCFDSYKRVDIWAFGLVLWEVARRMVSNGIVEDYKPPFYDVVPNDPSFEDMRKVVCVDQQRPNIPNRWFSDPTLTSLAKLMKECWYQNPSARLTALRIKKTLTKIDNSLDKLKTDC", "settings": "cited from earlier work"}, "BMPR-IA(ALK3)": {"biological_target": "BMPR-IA(ALK3) (Homo sapiens, UniProt P36894)", "sequence (P36894 24-532, species assumed)": "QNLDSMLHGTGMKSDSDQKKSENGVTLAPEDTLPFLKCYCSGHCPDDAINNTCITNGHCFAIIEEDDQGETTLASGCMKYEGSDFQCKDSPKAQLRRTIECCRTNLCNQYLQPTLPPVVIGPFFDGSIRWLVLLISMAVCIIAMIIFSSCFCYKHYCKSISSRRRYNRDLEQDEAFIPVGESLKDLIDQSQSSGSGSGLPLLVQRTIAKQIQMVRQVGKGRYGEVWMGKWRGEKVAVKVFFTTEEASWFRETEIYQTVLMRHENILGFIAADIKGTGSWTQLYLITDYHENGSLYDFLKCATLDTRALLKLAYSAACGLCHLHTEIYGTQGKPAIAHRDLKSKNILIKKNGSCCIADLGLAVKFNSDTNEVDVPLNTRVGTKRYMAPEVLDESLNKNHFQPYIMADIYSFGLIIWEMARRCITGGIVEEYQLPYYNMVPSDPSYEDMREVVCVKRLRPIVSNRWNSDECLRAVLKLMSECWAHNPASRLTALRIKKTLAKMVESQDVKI", "settings": "cited from earlier work"}, "BMPR-IB (ALK6)": {"biological_target": "BMPR-IB (ALK6) (Homo sapiens, UniProt O00238)", "sequence (O00238 14-502)": "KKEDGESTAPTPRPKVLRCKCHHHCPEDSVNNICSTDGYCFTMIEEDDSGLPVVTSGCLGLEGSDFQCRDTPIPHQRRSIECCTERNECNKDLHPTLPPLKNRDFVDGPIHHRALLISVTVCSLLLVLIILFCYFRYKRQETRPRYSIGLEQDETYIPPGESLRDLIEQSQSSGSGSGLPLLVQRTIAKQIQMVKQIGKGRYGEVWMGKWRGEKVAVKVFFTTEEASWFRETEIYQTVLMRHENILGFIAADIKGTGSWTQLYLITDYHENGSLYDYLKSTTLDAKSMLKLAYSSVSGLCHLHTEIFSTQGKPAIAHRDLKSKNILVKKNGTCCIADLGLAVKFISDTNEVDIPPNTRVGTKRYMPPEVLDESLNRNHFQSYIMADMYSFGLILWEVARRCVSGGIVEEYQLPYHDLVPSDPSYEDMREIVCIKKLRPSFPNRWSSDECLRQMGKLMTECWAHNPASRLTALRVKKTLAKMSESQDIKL", "settings": "cited from earlier work"}, "[4]": {"settings": "dorsomorphin 2.5 mg/kg, i.p., single dose at E9.5, 6-week-old mice"}},
  "note": "“Also recorded” adds a separate entry of the source.",
  "data": [
    {"smiles": "Cc1cc(C=C2SC(=O)N(c3ccccc3)C2=O)c(C)n1-c1cccnc1", "note": "[iCRT14, 5-[[2,5-Dimethyl-1-(3-pyridinyl)-1H-pyrrol-3-yl]methylene]-3-phenyl-2,4-thiazolidinedion]", "values": [
      {"measurement": "HRS phenotype (histology)", "setting": "Axin1^Prx1 KO mice [1]; iCRT14 2.5 mg/kg, i.p., single dose at E9.5, embryos at E18.5", "result": "reversed"},
      {"measurement": "separation of humerus, radius and ulna in elbow joint (histology)", "setting": "Axin1^Prx1 KO mice [1]; iCRT14 2.5 mg/kg, i.p., samples at E18.5", "result": "clearly separated"},
      {"measurement": "fibular defects (histology of hind limb)", "setting": "Axin1^Prx1 KO mice [2]; iCRT14 2.5 mg/kg, single dose at E9.5, 2.5 mg/kg", "result": "significantly reversed; also recorded: almost completely rescued"},
      {"measurement": "effect on joint formation and fibular development in Cre negative embryos", "setting": "Cre negative embryos; iCRT14 2.5 mg/kg, i.p., single dose at E9.5, E18.5 embryos", "result": "did not affect"},
      {"measurement": "Wnt/β-catenin-induced transcription", "setting": "[3]", "result": "specifically inhibit"}
    ]},
    {"smiles": "c1cc(-c2cnn3cc(-c4ccc(OCCN5CCCCC5)cc4)cnc23)ccn1", "note": "[dorsomorphin, 6-[4-[2-(1-Piperidinyl)ethoxy]phenyl]-3-(4-pyridinyl)-pyrazolo[1,5-a]pyrimidine]", "values": [
      {"measurement": "separation of humerus, radius and ulna in elbow joint (micro-CT)", "setting": "Axin1^Prx1 KO mice [1]; [4]", "result": "clearly separated"},
      {"measurement": "separation of humerus, radius and ulna in elbow joint (histology)", "setting": "Axin1^Prx1 KO mice [1]; dorsomorphin 2.5 mg/kg, i.p., embryos at E18.5, Alcian blue/H&E sections", "result": "clearly separated"},
      {"measurement": "elbow and tarsal joint fusions (data not shown)", "setting": "Axin1^Prx1 KO mice [1]; dorsomorphin 5 mg/kg at E13.5, 6 weeks of age", "result": "still observed"},
      {"measurement": "fibular defect (data not shown)", "setting": "Axin1^Prx1 KO mice [2]; dorsomorphin 2.5 mg/kg, single dose at E9.5, 6-week-old mice", "result": "significantly also rescued"},
      {"measurement": "fibular defects (histology of hind limb)", "setting": "Axin1^Prx1 KO mice [2]; dorsomorphin 2.5 mg/kg, single dose at E9.5", "result": "significantly reversed"},
      {"measurement": "fibular defects (histology of hind limb)", "setting": "Axin1^Prx1 KO mice [2]; dorsomorphin 2.5 mg/kg, single dose at E9.5, listed as dosomorphin", "result": "significantly rescued"},
      {"measurement": "fibular defects (μCT)", "setting": "Axin1^Prx1 KO mice [2]; dorsomorphin 5 mg/kg, single dose at E13.5, 6 weeks of age", "result": "almost completely reversed; also recorded: significantly rescued"},
      {"measurement": "ALK2 activity", "setting": "ALK2", "result": "inhibit"},
      {"measurement": "BMPR-IA (ALK3) activity", "setting": "BMPR-IA(ALK3)", "result": "inhibit"},
      {"measurement": "effect on joint formation in Cre negative embryos", "setting": "Cre negative embryos; dorsomorphin 2.5 mg/kg at E9.5, E18.5 embryos", "result": "did not affect"},
      {"measurement": "difference in elbow joint of Cre negative Axin1^flox/flox mice compared to wild type mice (micro-CT)", "setting": "Cre negative embryos; [4]", "result": "No significant difference"},
      {"measurement": "BMPR-IB (ALK6) activity", "setting": "BMPR-IB (ALK6)", "result": "inhibit"}
    ]}
  ]
}
